# Laboratory results as given in patent US4689326A, “Process for controlling hyperlipidemia” (Research Corporation, priority 1985, dated 1987).
# Experiments:
# [1] = system: Chylomicrons; experiment: Lipoprotein fractions in Rats, Example 11: chylomicrons; assay type: in vivo, Sprague Dawley male rats; conditions: oral 20 mg/kg/day, fourteen days, ± SD
# Description: A group of six Sprague Dawley male rats were treated with 20 mg/kg/day of 3,4,5,6-dibenzohomopiperidine. The treatment was applied orally. An equal number of Sprague Dawley male rats, having approximately the same weight, were utilized as an untreated control. At the end of fourteen days the control and treated rats were sacrificed. Blood was collected from the abdominal aorta and lipoprotein fractions were obtained by the method of Hatch and Lees [Adv. Lipid Rees., 6, 1 (1968)] and Havel et al. [J. Clin Invest., 34, 1345 (1955)]. Each of the fractions were analyzed for cholesterol, triglycerides, neutral lipids, phospholipids and protein levels.
# [2] = system: Small Intestine; experiment: Lipid Extraction Studies in Rats, Example 11: small intestine; assay type: in vivo, Sprague Dawley male rats; conditions: oral 20 mg/kg/day, fourteen days, ± SD
# [3] = system: serum triglycerides; experiment: Testing of Normal Mice: serum triglycerides (BioDynamics kit), Example 7; assay type: in vivo, CF1 male mice; conditions: Mus musculus, 384 h; 20 mg/kg/day ip, day 16, ± SD
# Description: Suspensions of Compounds Nos. 1-9 were prepared wherein the compounds were suspended in an aqueous 1% carboxymethylcelluose solution, homogenized and administered to CF1 male mice, each weighing approximately 25 grams, intraperitoneally on a daily basis for 16 days. The dosage was, with the exception of one compound, 20 milligrams of the active compound per kilogram of mouse weight per day. On days 9 and 16 blood was obtained by tail vein bleeding. The blood serum was separated by centrifugation for three minutes. Serum cholesterol levels were determined by a modification of the Liebermann-Burchard reaction. Serum was also collected on day 16 and the triglycerides content was determined by a commercial kit, BioDynamics/bnc Single Vile Colorimetric Method 348201. Each compound was tested on a group of six mice.
# In addition to the above-described treated mice, untreated control groups of six mice were similarly tested on days 9 and 14 or 16 to determine their serum cholesterol and triglycerides blood levels. Table 5 reports the percent control, based on the serum cholesterol and serum triglyceride levels of the treated mice compared to the untreated controls. Table 5 also includes the standard deviation indicating the level of confidence of these numbers.
# Example 7 was repeated substituting clofibrate, a compound used in the prior art to lower serum cholesterol and serum triglyceride levels. The clofibrate was administered as a suspension in an aqueous 1% solution of carboxymethylcellulose. However, unlike the compounds of the present invention which were administered at a dosage of 20 mg/kg day, ip, this compound was administered at the elevated concentration of 150 mg/kg day, ip.
# [4] = system: serum cholesterol; experiment: Testing of Normal Rats: serum cholesterol, Example 8; assay type: in vivo, Sprague Dawley male rats; conditions: oral 20 mg/kg/day
# Description: In Example 8 a set of six Sprague Dawley male rats, each weighing approximately 350 grams, were orally treated with a concentration of 20 mg per kilogram of rat weight per day, again suspended in a 1% aqueous solution of CMC. The dosage was applied orally by an intubation needle. On days 9 and 16 serum cholesterol and serum triglycerides blood levels of the rats were measured utilizing th procedure of Example 7.
# A control group of six similar Sprague Dawley male rats were untreated but tested on Days 9 and 16 in accordance with the tests administered to the treated rats. Table 6 reports the percent control based on the decrease in serum cholesterol and serum triglycerides of the treated rats compared to the levels measured in the untreated control group.
# [5] = system: Phosphatidate Phosphohydrolase; experiment: In vivo enzyme activity, liver of treated mice: phosphatidate phosphohydrolase; design: species or system CF1 male mice; conditions: 16 days, ± SD
# Description: (§1) In vitro enzymatic studies were undertaken using 10% homogenates of CF1 male mouse liver with […] of compound 3,4,5,6-dibenzohomopiperidine. In addition, in vivo enzymatic studies were performed, again using 10% liver homogenates (prepared in 0.25 M sucrose plus 0.001 M (ethylenedinitrilo)-tetraacetic acid, ph 7.25 from CF1 male mice obtained after administering 3,4,5,6-dibenzohomopiperidine for 16 days at a concentration ranging from 10 to 60 mg/kg/day, intraperitoneally.
# (§2) The following enzyme activities were determined by following standard literature procedures: acetyl coenzyme synthetase; adenosine triphosphate dependent citrate lyase; mitochondrial citrate exchange; cholesterol/7 hydroxylase; 3-hydroxy-3-methyl-glutaryl coenzyme A reductase; acetyl coenzyme A carboxylase activity; fatty acid synthetase activity; sn-glycerol-3-phosphate acyl transferase activity; phosphatidate phosphohydrolase activity; cholesterol acyl transferase; and heparin activated hepatic lypoprotein lipase. Protein was determined for all enzyme assays by the Lowry et al. technique (J. Biol. Chem, 193, 265 (1951)).
# [6] = system: Acetyl CoA Synthetase; experiment: In vivo enzyme activity, liver of treated mice: acetyl CoA synthetase; design: species or system CF1 male mice; conditions: 16 days, ± SD
# Description: as §1, §2
# [7] = system: serum triglycerides; experiment: Testing of Normal Mice: serum triglycerides (BioDynamics kit), Example 7; assay type: in vivo, CF1 male mice; conditions: Mus musculus, 384 h, day 16, ± SD
# [8] = target: T1, Fatty Acid Synthetase (Mus musculus, UniProt P19096); experiment: In vitro enzyme activity, liver homogenate: fatty acid synthetase; assay type: biochemical, CF1 male mouse; conditions: ± SD, N = 6, read-out: Percent Control, in vitro enzyme activity
# T1 construct: 10% homogenates of CF1 male mouse liver; from tissue; host or cells: CF1 male mouse liver, 10% homogenate
# T1 sequence (P19096 whole entry): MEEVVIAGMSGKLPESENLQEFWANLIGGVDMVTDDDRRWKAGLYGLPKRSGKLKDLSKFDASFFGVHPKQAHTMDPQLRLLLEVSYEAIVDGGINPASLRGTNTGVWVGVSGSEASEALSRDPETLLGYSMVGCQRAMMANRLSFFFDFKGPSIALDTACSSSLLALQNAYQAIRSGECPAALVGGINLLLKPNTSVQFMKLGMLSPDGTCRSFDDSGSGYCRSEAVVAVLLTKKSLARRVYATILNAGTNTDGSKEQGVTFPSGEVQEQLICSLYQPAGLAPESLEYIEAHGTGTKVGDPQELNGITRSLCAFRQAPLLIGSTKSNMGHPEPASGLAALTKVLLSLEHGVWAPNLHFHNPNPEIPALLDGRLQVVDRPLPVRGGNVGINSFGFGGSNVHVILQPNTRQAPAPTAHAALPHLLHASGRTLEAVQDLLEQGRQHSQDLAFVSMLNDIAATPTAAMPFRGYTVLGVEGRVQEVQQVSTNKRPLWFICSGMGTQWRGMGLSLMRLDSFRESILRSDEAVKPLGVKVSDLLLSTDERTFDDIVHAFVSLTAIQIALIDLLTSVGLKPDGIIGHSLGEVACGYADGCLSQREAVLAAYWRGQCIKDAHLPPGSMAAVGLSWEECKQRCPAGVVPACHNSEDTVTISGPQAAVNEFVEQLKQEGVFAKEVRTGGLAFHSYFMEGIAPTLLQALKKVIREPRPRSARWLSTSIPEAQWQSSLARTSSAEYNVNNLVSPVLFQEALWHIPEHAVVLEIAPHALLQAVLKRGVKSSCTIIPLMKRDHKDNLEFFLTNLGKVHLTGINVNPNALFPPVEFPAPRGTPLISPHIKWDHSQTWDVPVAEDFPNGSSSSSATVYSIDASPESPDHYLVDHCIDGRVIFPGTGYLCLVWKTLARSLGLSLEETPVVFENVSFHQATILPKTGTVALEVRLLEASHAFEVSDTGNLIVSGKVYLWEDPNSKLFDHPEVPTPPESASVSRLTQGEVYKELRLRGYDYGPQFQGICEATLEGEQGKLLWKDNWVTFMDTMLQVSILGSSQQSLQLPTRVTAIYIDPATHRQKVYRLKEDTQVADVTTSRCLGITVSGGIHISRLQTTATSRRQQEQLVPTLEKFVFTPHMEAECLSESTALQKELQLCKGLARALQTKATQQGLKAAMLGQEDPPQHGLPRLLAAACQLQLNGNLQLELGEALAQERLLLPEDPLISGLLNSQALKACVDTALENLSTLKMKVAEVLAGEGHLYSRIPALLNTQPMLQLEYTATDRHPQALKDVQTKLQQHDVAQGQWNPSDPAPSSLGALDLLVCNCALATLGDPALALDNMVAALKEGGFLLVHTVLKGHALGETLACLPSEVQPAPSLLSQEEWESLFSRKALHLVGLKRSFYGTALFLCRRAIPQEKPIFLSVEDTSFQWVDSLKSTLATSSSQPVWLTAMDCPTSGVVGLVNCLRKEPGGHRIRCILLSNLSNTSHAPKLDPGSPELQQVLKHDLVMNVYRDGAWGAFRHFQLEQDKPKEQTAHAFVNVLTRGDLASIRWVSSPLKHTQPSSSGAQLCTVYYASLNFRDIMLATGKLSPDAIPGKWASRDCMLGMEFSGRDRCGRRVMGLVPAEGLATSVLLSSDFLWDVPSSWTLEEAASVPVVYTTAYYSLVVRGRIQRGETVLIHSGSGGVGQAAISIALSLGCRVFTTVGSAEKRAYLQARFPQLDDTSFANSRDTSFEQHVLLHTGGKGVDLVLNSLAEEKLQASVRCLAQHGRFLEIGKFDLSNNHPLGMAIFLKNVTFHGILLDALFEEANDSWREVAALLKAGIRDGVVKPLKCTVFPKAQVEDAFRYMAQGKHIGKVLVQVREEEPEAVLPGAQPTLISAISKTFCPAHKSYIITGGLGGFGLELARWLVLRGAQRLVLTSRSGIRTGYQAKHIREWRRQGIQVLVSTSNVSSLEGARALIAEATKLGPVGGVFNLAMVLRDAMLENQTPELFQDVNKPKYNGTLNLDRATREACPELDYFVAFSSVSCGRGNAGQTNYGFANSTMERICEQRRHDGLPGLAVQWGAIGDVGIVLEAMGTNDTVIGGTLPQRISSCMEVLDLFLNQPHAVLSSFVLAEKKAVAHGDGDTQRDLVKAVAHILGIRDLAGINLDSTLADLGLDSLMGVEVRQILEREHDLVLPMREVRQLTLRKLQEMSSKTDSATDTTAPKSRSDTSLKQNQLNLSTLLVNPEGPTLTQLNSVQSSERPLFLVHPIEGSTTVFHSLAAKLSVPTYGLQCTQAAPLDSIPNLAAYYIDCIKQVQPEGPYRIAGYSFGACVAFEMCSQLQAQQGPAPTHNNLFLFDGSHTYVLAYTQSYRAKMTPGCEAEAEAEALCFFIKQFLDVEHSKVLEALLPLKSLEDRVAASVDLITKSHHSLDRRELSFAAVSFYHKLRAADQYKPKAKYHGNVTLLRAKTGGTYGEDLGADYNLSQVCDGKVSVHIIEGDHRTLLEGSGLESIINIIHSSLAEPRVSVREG
# Description: as §1, §2
# [9] = target: T2, Cholesterol-7 Hydroxylase (Mus musculus, UniProt Q64505); experiment: In vitro enzyme activity, liver homogenate: cholesterol-7 hydroxylase; assay type: biochemical, CF1 male mouse; conditions: ± SD, N = 6, read-out: Percent Control, in vitro enzyme activity
# T2 construct: 10% homogenates of CF1 male mouse liver; from tissue; host or cells: CF1 male mouse liver, 10% homogenate
# T2 sequence (Q64505 whole entry): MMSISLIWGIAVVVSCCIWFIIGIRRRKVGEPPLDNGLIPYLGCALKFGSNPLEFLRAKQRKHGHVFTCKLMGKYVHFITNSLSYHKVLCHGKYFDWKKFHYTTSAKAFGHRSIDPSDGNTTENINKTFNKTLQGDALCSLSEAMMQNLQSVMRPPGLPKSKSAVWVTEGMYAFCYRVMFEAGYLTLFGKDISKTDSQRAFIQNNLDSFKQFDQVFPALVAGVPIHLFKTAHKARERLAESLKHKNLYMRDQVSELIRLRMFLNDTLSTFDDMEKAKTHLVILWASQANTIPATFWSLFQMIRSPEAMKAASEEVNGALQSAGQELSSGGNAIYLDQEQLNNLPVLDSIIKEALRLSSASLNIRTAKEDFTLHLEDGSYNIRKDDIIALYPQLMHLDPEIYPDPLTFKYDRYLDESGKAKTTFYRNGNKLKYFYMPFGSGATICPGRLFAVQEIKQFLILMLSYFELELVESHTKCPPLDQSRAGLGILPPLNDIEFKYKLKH
# Description: as §1, §2
# [10] = target: T3, Acetyl CoA Carboxylase (Mus musculus, UniProt Q5SWU9); experiment: In vitro enzyme activity, liver homogenate: acetyl CoA carboxylase; assay type: biochemical, CF1 male mouse; conditions: ± SD, N = 6, read-out: Percent Control, in vitro enzyme activity
# T3 construct: 10% homogenates of CF1 male mouse liver; from tissue; host or cells: CF1 male mouse liver, 10% homogenate
# Description: as §1, §2
smiles,measurement,setting,value
"c1ccc2c(c1)CNCc1ccccc1-2 [Compound 3, 3,4,5,6-dibenzohomopiperidine]","Cholesterol, concentration as a function of control",[1],77 ± 6%
same,"Neutral Lipids, concentration as a function of control",[1],69 ± 7%
same,"Phospholipids, concentration as a function of control",[1],65 ± 5%
same,"Protein, concentration as a function of control",[1],106 ± 6%
same,"Triglycerides, concentration as a function of control",[1],69 ± 6%
same,"Cholesterol, concentration as a function of control",[2],130 ± 6%
same,"Mg Lipid Wt, concentration as a function of control",[2],143 ± 5%
same,"Neutral Lipids, concentration as a function of control",[2],149 ± 6%
same,"Phospholipids, concentration as a function of control",[2],119 ± 6%
same,"Protein, concentration as a function of control",[2],118 ± 7%
same,"Triglycerides, concentration as a function of control",[2],130 ± 6%
same,response vs control in vivo at 20 mg/kg,[3],49 ± 5%
same,% Control Serum Cholesterol Day 9,"[4]; day 9, ± SD",75 ± 5%
same,% Control Serum Cholesterol Day 16,"[4]; day 16, ± SD",64 ± 3%
same,"Percent Control, in vivo enzyme activity",[5]; 10 mg/kg/day ip,51 ± 4%
same,"Percent Control, in vivo enzyme activity",[5]; 20 mg/kg/day ip,47 ± 9%
same,"Percent Control, in vivo enzyme activity",[5]; 40 mg/kg/day ip,81 ± 6%
same,"Percent Control, in vivo enzyme activity",[5]; 60 mg/kg/day ip,100 ± 6%
same,"Percent Control, in vivo enzyme activity",[6]; 10 mg/kg/day ip,64 ± 6%
same,"Percent Control, in vivo enzyme activity",[6]; 20 mg/kg/day ip,95 ± 6%
same,"Percent Control, in vivo enzyme activity",[6]; 40 mg/kg/day ip,103 ± 8%
same,"Percent Control, in vivo enzyme activity",[6]; 60 mg/kg/day ip,81 ± 6%
same,response vs control in vivo at 10 mg/kg,[7]; 10 mg/kg/day ip,48 ± 5%
same,response vs control in vivo at 40 mg/kg,[7]; 40 mg/kg/day ip,44 ± 6%
same,response vs control in vivo at 60 mg/kg,[7]; 60 mg/kg/day ip,55 ± 6%
same,remaining activity at 50 µM,[8]; 50 μM,91 ± 7%
same,remaining activity at 100 µM,[8]; 100 μM,92 ± 8%
same,remaining activity at 200 µM,[8]; 200 μM,101 ± 9%
same,remaining activity at 50 µM,[9]; 50 μM,68 ± 7%
same,remaining activity at 100 µM,[9]; 100 μM,72 ± 5%
same,remaining activity at 200 µM,[9]; 200 μM,98 ± 7%
same,remaining activity at 50 µM,[10]; 50 μM,84 ± 6%
same,remaining activity at 100 µM,[10]; 100 μM,100 ± 7%
same,remaining activity at 200 µM,[10]; 200 μM,99 ± 5%
